According to US11492338B2, “Furan surfactant compositions and methods” (SIRONIX RENEWABLES, INC., priority 2020, dated 2022):
In brackets after ≈: the same amount, converted by molar mass. Like-named read-outs stand apart in the source and are kept apart here. Marks after values point to notes of the source that are not given here.

Experiments:
[1] = Critical micelle concentration (CMC); format: physicochemical
Krafft point = format: physicochemical
Method: (§1) Synthesized surfactants including the structure depicted in Experimental Structure 1, as well as the corresponding Na, Li, NH4, and Mg surfactants, were tested to determine surfactant properties. These included the time required for the surfactant solution to wet cotton fabric, the amount of foam the surfactant generates when agitated, the tolerance of the surfactant to calcium ions in solution as a measure of surfactant performance in hard water, and the temperature below which the surfactant forms a solid precipitate, known as the Krafft Point.

[2] = Solubility in deionized water at 20° C.; format: physicochemical
[3] = Calcium tolerance (Ca^2+ from CaCl2 until sustained precipitate); format: physicochemical; conditions: ppm of Ca^2+ from CaCl2 where sustained precipitate is noted; for Calcium Tolerance: Table 2; for Ca^2+ Tolerance: Table 3
Method: as §1

[4] = Surface tension at critical micelle concentration; format: physicochemical
[5] = Stability tracking of oleo-furan sulfonic acid by liquid chromatography; format: physicochemical; conditions: 8-week time course, room temperature and elevated temperature (42° C.)
Source text: Another advantage of surfactant embodiments disclosed herein is their inherent stability, particularly in the acid form prior to neutralization (oleo-furan sulfonic acids). As noted elsewhere herein, structural stability is an issue in the production of the common anionic surfactant SLES, causing occasional ring closure of the labile ethoxy chain during ethoxylation and sulfation step, which leads to the formation of a carcinogenic byproduct (e.g., 1,4-dioxane).
The calcium and magnesium monoanionic surfactants were both observed to have high foaming and foam stability, which is attractive for a number of applications including home cleaning, personal care, detergents, cosmetics, ore floatation and oil recovery. […] Stability of the oleo-furan surfactant, specifically the acid form oleo-furan sulfonic acid that is a precursor to the calcium and other cation surfactants, was measured over an eight week time course at room temperature and elevated temperatures, the results of which can be seen in FIG. 1.

[6] = water; common sodium surfactants; cited from earlier work

Compound | CMC (critical micelle concentration) ([1]; Table 2) [ppm] | Krafft Point (Krafft point; Table 2) [°C] | Solubility ([2]; Table 2) [mg/mL] | Calcium Tolerance [3] | Surface Tension at critical micelle concentration ([4]; Table 2) [mN/m] | other results
CCCCCCCCCCCCOCCOCCOCCOS(=O)(=O)[O-].[Na+] [SLES, sodium lauryl ether sulfate, reference compound] | 449 | <0 | ≥1000 | >50,000 ppm | 32 | –
CCCCCCCCCCCC(=O)c1cc(S(=O)(=O)[O-])c(C)o1.[Na+] [Na^+] | 1480 | <0 | – | >50,000 ppm | 42 | CMC (critical micelle concentration) ([1]; Table 3): 1480 ppm; Krafft Point (Krafft point; Table 3): <0 °C; Ca^2+ Tolerance [3]: >50,000 ppm; Surface Tension at critical micelle concentration ([4]; Table 3): 42 mN/m
CCCCCCCCCCCC(=O)c1cc(S(=O)(=O)O)c(C)o1 [oleo-furan sulfonic acids] | – | – | – | – | – | degradation or byproduct formation by liquid chromatography [5]: negligible degradation or byproduct formation
CCCCCCCCCCCC(=O)c1cc(S(=O)(=O)[O-])c(C)o1.CCCCCCCCCCCC(=O)c1cc(S(=O)(=O)[O-])c(C)o1.[Mg+2] [Mg^2+] | – | 20 | 10 | >50,000 ppm | – | Surface Tension ([4]; Table 2, recorded for saturated surfactant solution at 20° C.): 38* mN/m
sodium dodecylbenzene sulfonate | – | – | – | – | – | Solubility [6]: 250 mg/mL
CCCCCCCCCCCC(=O)c1cc(S(=O)(=O)O)c(C)o1 [Ca^2+] | 300 | <0 | – | >50,000 ppm | 33 | Solubility ([2]; Table 2, read-out: Solubility): 350 mg/mL (≈ 1020 mM)
CCCCCCCCCCCC(=O)c1ccc(S(=O)(=O)[O-])o1.[Na+] [Na^+ OFS-12-1/0] | – | – | – | – | – | CMC (critical micelle concentration) ([1]; Table 3): 1735 ppm; Krafft Point (Krafft point; Table 3): <0 °C; Ca^2+ Tolerance [3]: >50,000 ppm; Surface Tension at critical micelle concentration ([4]; Table 3): 44 mN/m
CCCCCCCCCCCC(=O)c1cc(S(=O)(=O)[O-])c(C)o1.[Li+] [Li^+] | 1347 | <0 | 300 | >50,000 ppm | 45 | –
CCCCCCCCCCCC(=O)c1cc(S(=O)(=O)O)c(C)o1.N [NH4^+] | 3309 | <0 | 1000 | >50,000 ppm | 39 | –
